According to patent US20220289731A1, “MELANOCORTIN-4 RECEPTOR AGONISTS” (LG CHEM, LTD., priority 2019, published 2022):
Like-named read-outs stand apart in the source and are kept apart here.

Columns and labels:
MC4R [1] = target: T1, MC4R (Homo sapiens, UniProt P32245); experiment: β-arrestin assay (Pathhunter eXpress U2OS cell line); format: cell-based; set-up: expressed in transfected cells; host or cells: U2OS (Pathhunter eXpress β-arrestin cell line); settings: U2OS cells, 90 min at 37° C.
Description: The melanocortin receptor is a type of G-protein coupled receptor (GPCR) and regulates various physiological responses by transducing signals from many neurotransmitters. When GPCR is phosphorylated, β-arrestin is bound to the phosphorylated part of the receptor and plays an important role in activating various signaling pathways in cells through interaction with other proteins. It is known that, when the melanocortin receptor interacts with an agonist, β-arrestin is mobilized and is involved in the β-arrestin-mediated signaling pathway. Therefore, the activity of the melanocortin receptor can be evaluated through the measurement of β-arrestin.
A Pathhunter eXpress β-arrestin cell line (U2OS cell line) in which Prolink (PK)-tagged MC1R, MC3R, MC4R, MC5R and Enzyme acceptor (EA)-tagged β-arrestin were expressed together was established. When the MCR-PK portion of this cell line is activated, β-arrestin-EA is mobilized, and enzyme acceptor (EA) and Prolink (PK), which are the β-galactosidase enzyme fragments, interact. The activated enzyme hydrolyzes the substrate by β-galactosidase activity to produce a chemiluminescent signal, so that the activity can be measured. After the Pathhunter eXpress β-arrestin cell line (U2OS cell line) was incubated, the cells were inoculated into each well of the cell culture plate and incubated for 48 hours in a 37° C. incubator in the presence of 5% CO2. After the incubation, 5 μl of the sample diluted 5 times with buffer was added, the vehicle concentration was set to 1%, and the MC4R agonist compound diluted at each step concentration was added, followed by reaction at 37° C. for 90 minutes. The activity (%) of each agonist compound is expressed as 100%×(average RLU value of sample−average RLU value of vehicle control)/(average maximum value of control ligand−average RLU value of vehicle control), and the value was analyzed by CBIS data analysis suite (ChemInnovation, CA).
Target sequence in this assay (P32245 whole entry): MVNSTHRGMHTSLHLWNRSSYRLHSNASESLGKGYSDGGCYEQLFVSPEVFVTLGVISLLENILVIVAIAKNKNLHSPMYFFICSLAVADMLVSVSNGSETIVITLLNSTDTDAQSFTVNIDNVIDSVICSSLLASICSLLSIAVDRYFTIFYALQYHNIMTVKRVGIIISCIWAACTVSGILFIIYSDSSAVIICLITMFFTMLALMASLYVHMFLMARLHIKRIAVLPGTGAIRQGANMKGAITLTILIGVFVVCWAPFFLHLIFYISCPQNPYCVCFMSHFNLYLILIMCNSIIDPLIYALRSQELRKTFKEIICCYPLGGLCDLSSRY
Target sequence in this assay (P32121 whole entry partner): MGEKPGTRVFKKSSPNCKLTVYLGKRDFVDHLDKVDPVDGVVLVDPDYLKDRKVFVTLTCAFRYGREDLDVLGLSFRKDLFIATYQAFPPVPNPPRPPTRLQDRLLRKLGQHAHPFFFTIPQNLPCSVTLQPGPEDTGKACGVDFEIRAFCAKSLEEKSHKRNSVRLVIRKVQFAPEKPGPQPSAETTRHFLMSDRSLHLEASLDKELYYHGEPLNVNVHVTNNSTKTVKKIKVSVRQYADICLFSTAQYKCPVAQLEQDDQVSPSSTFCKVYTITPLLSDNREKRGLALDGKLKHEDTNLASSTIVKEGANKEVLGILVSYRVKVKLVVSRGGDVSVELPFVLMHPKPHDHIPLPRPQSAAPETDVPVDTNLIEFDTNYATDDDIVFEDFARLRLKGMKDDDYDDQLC

MC4R [2] = target: T1, MC4R; experiment: Luciferase assay (HEK MC4R-Luc, CRE-LUC); format: cell-based; set-up: expressed in transfected cells; settings: HEK MC4R-Luc cells, 5 h incubation
Protocol: In order to measure the agonist ability against MC4R (melanocortin-4 receptor), a cell line that permanently expresses the luciferase gene (CRE-LUC) under the control of MC4R and CRE (cAMP response element) was established. After a mammalian cell expression vector (pCDNA3 (Neo)) (Invitrogen) containing the MC4R gene was prepared, human embryonic kidney (HEK) cell lines were transformed by using Lipofectamine 2000 (Invitrogen) together with a vector (pCRE-Luc)(Stratagen) expressing a luciferase gene (CRE-LUC) under the control of a cAMP response element (CRE). Transformed cell lines (HEK MC4R-Luc) were incubated in a 37° C. incubator in the presence of 5% CO2 for 24 hours by using Dulbecco's Modified Eagles Medium (DMEM) containing 10% Heat-Inactivated Fetal Bovine Serum (GIBCO/BRL). The cell lines were incubated for four days in the presence of Dulbecco's Modified Eagles Medium (DMEM) containing 10 ml of selection medium (10% Heat-Inactivated Fetal Bovine Serum (GIBCO/BRL), 100 unit/ml of penicillin (GIBCO/BRL), 100 unit/ml of streptomycin (GIBCO/BRL), 800 μg/ml of Geneticin (G418) (GIBCO/BRL). The process of removing cells killed by the selection medium by replacing the medium with 10 ml of a new selection medium was repeated three times, once every 4 days. Individual colonies formed by the finally selected and propagated clones were transferred under a microscope to a 24-well cell culture plate containing 1 ml of selection medium per well and incubated for 4 days. Forskolin (SIGMA) was treated to a final concentration of 10 μM, and then incubated for five hours in a 37° C. incubator in the presence of 5% CO2. Each well was treated with 50 μl of a Bright-Glo luciferase reagent (Promega) and left at room temperature for 15 minutes, and then the luminescence of each well was measured by using a luminometer (Victor).
HEK MC4R-Luc cells were added to each well of a 96-well luminometer cell culture plate (Costar) to a size of 2.5×10^4 cells in 100 μl of a culture medium and then incubated in a 37° C. incubator in the presence of 6% CO2 for 18 hours. […] Each well was treated with 50 μl of a Bright-Glo luciferase reagent (Promega) and left at room temperature for five minutes, and then the luminescence of each well was measured by using a luminometer (Victor). […] EC0.5 MSH is expressed as a concentration that induces 50% of the maximum amount of luminescence that can be induced by NDP-α-MSH, and EC50 is expressed as a concentration that induces 50% of the maximum amount of luminescence that can be induced by each agonist. The measurements were measured using statistical software (Prizm).
Target sequence in this assay (P32245 whole entry, species assumed): as the sequence (P32245 whole entry) above

[3] = Pharmacokinetic profile in mice, plasma and brain, oral administration; format: in vivo, C57BL6 mice; settings: 10 mg/kg; for AUC(0-inf) / half-life / Cmax / Kp: C57BL6, mouse; for Kp: brain/plasma, read-out: Brain to Plasma AUC ratio, mean ratio
Protocol: In order to investigate the pharmacokinetics (PK) properties of the compound of Example 1 and the compounds of comparative examples, the following experiment was performed. In order to perform the PK test for the compound of Example 1 and the compounds of the comparative examples ([…]), about 7 week-old C57BL6 mice were prepared, 12 individuals were assigned per administered substance, separated into groups, and starved for oral administration. On the day of administration, a drug solution was prepared at a concentration of 1 mg/mL by using distilled water (DW) as a vehicle and was orally administered at […] body weight of each individual, and the final dose was 10 mg/kg. At 1, 3, 8, and 24 hours after the administration, whole blood was collected through cardiac blood collection from each of the 3 individuals in each group and then placed in a heparin tube to prevent coagulation. Thereafter, the cerebrum of each individual was collected and placed in an EP tube, the weight of the tissue was measured, and frozen storage was performed at -20° C. […] In this case, AN included an internal standard. […] After 0.5 μL of the supernatant obtained after deproteinization was injected into LC-MS/MS, peak areas of the compounds of the example and the comparative examples ([…]) were corrected with the peak areas of IS to obtain the peak response at each sample collection point and perform the concentration conversion by a calibration curve. The pharmacokinetic parameters (Cmax, AUCinf, t1/2, and the like) were calculated by a noncompartmental analysis method by using WinNonlin 8.1 for the values of the blood concentration with time for each administration group. The pharmacokinetic characteristics of each compound were compared by comparing exposure, half-life changes, and the like for each drug administration group, and the resultant values are shown in Tables 5 and 6.

[4] = brain, read-out: t1/2, Brain (converted)
[5] = plasma, read-out: AUCinf, Plasma
[6] = plasma, read-out: t1/2, Plasma (converted)

| SMILES | EC50 (MC4R [1]) [nM] | EC50 (MC4R [2]) [nM] | Cmax, Brain ([3]; brain) [ng/mL] | AUC(0-inf) ([3]; brain, read-out: AUCinf, Brain) [ng·h/mL] | half-life [3, 4] [min] | Cmax ([3]; plasma) [ng/mL] | AUC(0-inf) [3, 5] [ng·h/mL] | half-life [3, 6] [min] | Kp [3] |
| --- | --- | --- | --- | --- | --- | --- | --- | --- | --- |
| CC(=O)N(C1CCC(C)(C)CC1)[C@H]1C[C@@H](C(=O)N2CCOCC2)N(C(=O)[C@@H]2CN(C(C)(C)C)C[C@H]2c2ccc(Cl)cc2)C1.Cl [Comparative Example 2 (A96), N-((3S,5S)-1-((3S,4R)-1-(tert-butyl)-4-(4-chlorophenyl)pyrrolidine-3-carbonyl)-5-(morpholine-4-carbonyl)pyrrolidin-3-yl)-N-(4,4-dimethylcyclohexyl)acetamide hydrochloride] | 44.3 | 5.48 | 27.1 | 530 | 480 | 337 | 1650 | 156 | 0.32 |
| CC(C)C(=O)N([C@H]1C[C@@H](C(=O)N2CCOCC2)N(C(=O)[C@@H]2CN(C(C)(C)C)C[C@H]2c2ccc(Cl)cc2)C1)[C@H]1CC[C@@H](C)CC1.Cl [Example 1, N-((3S,5S)-1-((3S,4R)-1-(tert-butyl)-4-(4-chlorophenyl)pyrrolidine-3-carbonyl)-5-(morpholine-4-carbonyl)pyrrolidin-3-yl)-N-((1s,4R)-4-methylcyclohexyl)isobutyramide hydrochloride] | 4.6 | 0.562 | 49.1 | 1500 | 1140 | 232 | 2070 | 234 | 0.72 |
| CC(=O)N(C1CCC(C)(C)CC1)[C@H]1C[C@@H](C(=O)N2CCOCC2)N(C(=O)[C@@H]2CN(C(C)(C)C)C[C@H]2c2ccc(F)cc2F)C1.Cl [Comparative Example 1 (A95), N-((3S,5S)-1-((3S,4R)-1-(tert-butyl)-4-(2,4-difluorophenyl)pyrrolidine-3-carbonyl)-5-(morpholine-4-carbonyl)pyrrolidin-3-yl)-N-(4,4-dimethylcyclohexyl)acetamide hydrochloride] | 176 | 17.4 | 20 | 222 | 360 | 205 | 565 | 162 | 0.39 |
